Results taken from US20250197359A1, “CANNABINOID RECEPTOR MODULATING COMPOUNDS” (The U.S.A., as Represented by the Secretary, Department of …, priority 2022, published 2025).
Like-named read-outs stand apart in the source and are kept apart here.

Key:
[1] = molecular target: CB1 (UniProt P21554); experiment: CB1 radioligand binding assay; design: species or system human
Procedure: The target compounds were evaluated in vitro at the human CB1 receptor, stably expressed into Chinese hamster ovary (CHO) cells by utilizing radioligand binding studies.
The binding constant for the synthesized compounds were determined by using radioligand binding assay in mouse brain membranes as well as the target compounds were evaluated in vitro at the human CB1 receptor, stably expressed into Chinese hamster ovary (CHO) cells as well as mouse brain membrane CB1. […]

[2] = molecular target: T1, Brain/CB1 (Mus musculus, UniProt P47746); experiment: Functional GTPγS binding, Brain/CB1; format: biochemical
T1 construct: from tissue; host or cells: mouse brain membranes
T1 sequence (P47746 whole entry): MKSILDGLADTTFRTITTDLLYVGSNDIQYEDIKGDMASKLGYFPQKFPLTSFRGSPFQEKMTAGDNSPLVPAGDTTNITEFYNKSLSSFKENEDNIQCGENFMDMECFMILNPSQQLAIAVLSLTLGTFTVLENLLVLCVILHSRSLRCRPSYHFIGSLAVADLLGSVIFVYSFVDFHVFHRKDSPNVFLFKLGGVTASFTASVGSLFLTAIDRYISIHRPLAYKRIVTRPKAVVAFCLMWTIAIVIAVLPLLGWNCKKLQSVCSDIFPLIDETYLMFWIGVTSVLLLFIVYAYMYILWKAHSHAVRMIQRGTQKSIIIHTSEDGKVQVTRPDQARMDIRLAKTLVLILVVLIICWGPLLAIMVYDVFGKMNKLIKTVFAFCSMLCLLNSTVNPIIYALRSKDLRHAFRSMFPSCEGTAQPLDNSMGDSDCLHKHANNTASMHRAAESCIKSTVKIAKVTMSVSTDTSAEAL
Description: Furthermore, the intermediates urea compounds 8a-m were chlorinated with phosphorus oxychloride in the presence of DIPEA base to form imidoyl chloride intermediate and reacted with acetamidine hydrochloride/methyl carbamimidothioate iodide/methyl carbamimidoselenoate iodide and other amines to furnish the target compounds (10a-34b) (Scheme 2, FIG. 2, Scheme 5, FIG. 5). The urea derivatives were converted to the thiourea derivatives 9a-9d by employing sodium thiosulfate. Compound 8a-b, 8e-f were converted to corresponding thiourea by employing sodium thiosulfate dissolved in water dioxane mixture and the reaction was heated to 85° C. for 2 h. […] The binding constant for the synthesized compounds were determined by using radioligand binding assay in mouse brain membranes as well as the target compounds were evaluated in vitro at the human CB1 receptor, stably expressed into Chinese hamster ovary (CHO) cells as well as mouse brain membrane CB1.

| SMILES | Ki ([1]; read-out: Ki (CB1)) [nM] | further results |
| --- | --- | --- |
| CS/C(N)=N\C(=N\S(=O)(=O)c1ccc(C#N)cc1)N1CCC(c2ccccc2)C(c2ccc(Cl)cc2)=N1 (stereo not shown) [Compound 11e, methyl (Z)—N′—((Z)-(3-(4-chlorophenyl)-4-phenyl-5,6-dihydropyridazin-1 (4H)-yl)(((4-cyanophenyl)sulfonyl)imino)methyl)carbamimidothioate] | 138 |  |
| COc1ccc(S(=O)(=O)/N=C(/NC(C(N)=O)C(C)C)N2CCC(c3ccccc3)C(c3ccc(Cl)cc3)=N2)cc1 (single isomer, unassigned) [Compound 27b, (Z)-2-(3-(4-chlorophenyl)-N′-((4-methoxyphenyl)sulfonyl)-4-phenyl-1,4,5,6-tetrahydropyridazine-1-carboximidamido)-3-methylbutanamide] |  | IC50 [2]: 51 nM |
| CC(=O)N/C(N)=N\C(=N\S(=O)(=O)c1ccc(C#N)cc1)N1CCC(c2ccccc2)C(c2ccc(Cl)cc2)=N1 (stereo not shown) [Compound 13a, N—((Z)—N′—((Z)-(3-(4-chlorophenyl)-4-phenyl-5,6-dihydropyridazin-1 (4H)-yl)(((4-cyanophenyl)sulfonyl)imino)methyl)carbamimidoyl) acetamide] | 24.6 |  |
| C[Se]/C(N)=N\C(=N\S(=O)(=O)c1ccccc1)N1CCC(c2ccccc2)C(c2ccc(Cl)cc2)=N1 (stereo not shown) [Compound 12g, methyl (Z)—N′—((Z)-(3-(4-chlorophenyl)-4-phenyl-5,6-dihydropyridazin-1 (4H)-yl)((phenylsulfonyl)imino)methyl)carbamimidoselenoate] | 2800 |  |
| O=C(O)CCCN/C(=N/S(=O)(=O)c1ccc(C(F)(F)F)cc1)N1CCC(c2ccccc2)C(c2ccc(Cl)cc2)=N1 (stereo not shown) [Compound 21, (Z)-4-(3-(4-chlorophenyl)-4-phenyl-N′-((4-(trifluoromethyl)phenyl)sulfonyl)-1,4,5,6-tetrahydropyridazine-1-carboximidamido) butanoic acid] | 579 |  |
| CS/C(N)=N\C(=N\S(=O)(=O)c1ccc(OC(F)(F)F)cc1)N1CCC(c2ccccc2)C(c2ccc(Cl)cc2)=N1 (stereo not shown) [Compound 11d, methyl (Z)—N′—((Z)-(3-(4-chlorophenyl)-4-phenyl-5,6-dihydropyridazin-1 (4H)-yl)(((4-(trifluoromethoxy)phenyl)sulfonyl)imino)methyl)carbamimidothioate] | 151 |  |
| CS/C(N)=N\C(=N\S(=O)(=O)c1cccc(C(F)(F)F)c1)N1CCC(c2ccccc2)C(c2ccc(Cl)cc2)=N1 (stereo not shown) [Compound 11c, methyl (Z)—N′—((Z)-(3-(4-chlorophenyl)-4-phenyl-5,6-dihydropyridazin-1 (4H)-yl)(((3-(trifluoromethyl)phenyl)sulfonyl)imino)methyl)carbamimidothioate] | 234 |  |
| CCN(CC)/C(N)=N/C(=N/S(=O)(=O)c1ccc(C(F)(F)F)cc1)N1CCC(c2ccccc2)C(c2ccc(Cl)cc2)=N1 (stereo not shown) [Compound 18, (Z)—N—((E)-amino (diethylamino)methylene)-3-(4-chlorophenyl)-4-phenyl-N′-((4-(trifluoromethyl)phenyl)sulfonyl)-5,6-dihydropyridazine-1 (4H)-carboximidamide] | 536 |  |
| COc1ccc(S(=O)(=O)/N=C(/N=C(/N)[Se]C)N2CCC(c3ccccc3)C(c3ccc(Cl)cc3)=N2)cc1 (stereo not shown) [Compound 12h, methyl (Z)—N′—((Z)-(3-(4-chlorophenyl)-4-phenyl-5,6-dihydropyridazin-1 (4H)-yl)(((4-methoxyphenyl)sulfonyl)imino)methyl)carbamimidoselenoate] | 1100 |  |
| CC(C)(C)OC(=O)N/C(N)=N\C(=N\S(=O)(=O)c1ccc(C(F)(F)F)cc1)N1CCC(c2ccccc2)C(c2ccc(Cl)cc2)=N1 (stereo not shown) [Compound 19] | 383 |  |
| C/C(N)=N/C(=N/S(=O)(=O)c1ccc(C(F)(F)F)cc1)N1CCC(c2ccccc2)C(c2ccc(F)cc2)=N1 (stereo not shown) [Compound 10zc, (Z)—N—((Z)-1-aminoethylidene)-3-(4-fluorophenyl)-4-phenyl-N′-((4-(trifluoromethyl)phenyl)sulfonyl)-5,6-dihydropyridazine-1 (4H)-carboximidamide] | 120 |  |
| CC(=O)N/C(N)=N\C(=N\S(=O)(=O)c1ccc(C(F)(F)F)cc1)N1CCC(c2ccccc2)C(c2ccc(Cl)cc2)=N1 (stereo not shown) [Compound 14, N—((Z)—N′—((Z)-(3-(4-chlorophenyl)-4-phenyl-5,6-dihydropyridazin-1 (4H)-yl)(((4-(trifluoromethyl)phenyl)sulfonyl)imino)methyl)carbamimidoyl) acetamide] | 5 |  |
| O=S(=O)(/N=C(\N=C1/CCCN1)N1CCC(c2ccccc2)C(c2ccc(Cl)cc2)=N1)c1ccc(C(F)(F)F)cc1 (stereo not shown) [Compound 17, (E)-3-(4-chlorophenyl)-4-phenyl-N—((E)-pyrrolidin-2-ylidene)-N′-((4-(trifluoromethyl)phenyl)sulfonyl)-5,6-dihydropyridazine-1 (4H)-carboximidamide] | 117 |  |
| O=S(=O)(/N=C(\NC12CC3CC(CC(C3)C1)C2)N1CCC(c2ccccc2)C(c2ccc(Cl)cc2)=N1)c1ccc(C(F)(F)F)cc1 (stereo not shown) [Compound 20, (E)-N-((3s,5s,7s)-adamantan-1-yl)-3-(4-chlorophenyl)-4-phenyl-N′-((4-(trifluoromethyl)phenyl)sulfonyl)-5,6-dihydropyridazine-1 (4H)-carboximidamide] | 80.9 |  |
| C[Se]/C(N)=N\C(=N\S(=O)(=O)c1ccc(C#N)cc1)N1CCC(c2ccccc2)C(c2ccc(Cl)cc2)=N1 (stereo not shown) [Compound 12e, methyl (Z)—N′—((Z)-(3-(4-chlorophenyl)-4-phenyl-5,6-dihydropyridazin-1 (4H)-yl)(((4-cyanophenyl)sulfonyl)imino)methyl)carbamimidoselenoate] | 179 |  |
| CS/C(N)=N\C(=N\S(=O)(=O)c1ccccc1)N1CCC(c2ccccc2)C(c2ccc(Cl)cc2)=N1 (stereo not shown) [Compound 11g, methyl (Z)—N′—((Z)-(3-(4-chlorophenyl)-4-phenyl-5,6-dihydropyridazin-1 (4H)-yl)((phenylsulfonyl)imino)methyl)carbamimidothioate] | 1600 |  |
| CS/C(N)=N\C(=N\S(=O)(=O)c1ccc(Cl)cc1)N1CCC(c2ccccc2)C(c2ccc(Cl)cc2)=N1 (stereo not shown) [Compound 11a, methyl (Z)—N′—((Z)-(3-(4-chlorophenyl)-4-phenyl-5,6-dihydropyridazin-1 (4H)-yl)(((4-chlorophenyl)sulfonyl)imino)methyl)carbamimidothioate] | 210 |  |
| C[Se]/C(N)=N\C(=N\S(=O)(=O)c1ccc(Cl)cc1)N1CCC(c2ccccc2)C(c2ccc(Cl)cc2)=N1 (stereo not shown) [Compound 12a, methyl (Z)—N′—((Z)-(3-(4-chlorophenyl)-4-phenyl-5,6-dihydropyridazin-1 (4H)-yl)(((4-chlorophenyl)sulfonyl)imino)methyl)carbamimidoselenoate] |  | Ki ([1]; read-out: Ki (CB1) in nM): 45 nM |
| C[Se]/C(N)=N/C(=N/S(=O)(=O)c1ccc(C(F)(F)F)cc1)N1CCC(c2ccccc2)C(c2ccc(F)cc2)=N1 (stereo not shown) [Compound 12i, methyl (E)-N′—((Z)-(3-(4-fluorophenyl)-4-phenyl-5,6-dihydropyridazin-1 (4H)-yl)(((4-(trifluoromethyl)phenyl)sulfonyl)imino)methyl)carbamimidoselenoate] | 110 |  |
| C[Se]/C(N)=N\C(=N\S(=O)(=O)c1ccc2ccccc2c1)N1CCC(c2ccccc2)C(c2ccc(Cl)cc2)=N1 (stereo not shown) [Compound 12f, methyl (Z)—N′—((Z)-(3-(4-chlorophenyl)-4-phenyl-5,6-dihydropyridazin-1 (4H)-yl)((naphthalen-2-ylsulfonyl)imino)methyl)carbamimidoselenoate] | 317 |  |
| NC(=S)NN/C(=N/S(=O)(=O)c1ccc(C(F)(F)F)cc1)N1CCC(c2ccccc2)C(c2ccc(Cl)cc2)=N1 (stereo not shown) [Compound 22, (Z)-2-((3-(4-chlorophenyl)-4-phenyl-5,6-dihydropyridazin-1 (4H)-yl)(((4-(trifluoromethyl)phenyl)sulfonyl)imino)methyl) hydrazine-1-carbothioamide] | 575 |  |
| COc1ccc(S(=O)(=O)/N=C(/N=C(/N)SC)N2CCC(c3ccccc3)C(c3ccc(Cl)cc3)=N2)cc1 (stereo not shown) [Compound 11h, methyl (Z)—N′—((Z)-(3-(4-chlorophenyl)-4-phenyl-5,6-dihydropyridazin-1 (4H)-yl)(((4-methoxyphenyl)sulfonyl)imino)methyl)carbamimidothioate] | 1070 |  |
| CS/C(N)=N\C(=N\S(=O)(=O)c1ccc2ccccc2c1)N1CCC(c2ccccc2)C(c2ccc(Cl)cc2)=N1 (stereo not shown) [Compound 11f, methyl (Z)—N′—((Z)-(3-(4-chlorophenyl)-4-phenyl-5,6-dihydropyridazin-1 (4H)-yl)((naphthalen-2-ylsulfonyl)imino)methyl)carbamimidothioate] | 590 |  |
| C[Se]/C(N)=N\C(=N\S(=O)(=O)c1ccc(OC(F)(F)F)cc1)N1CCC(c2ccccc2)C(c2ccc(Cl)cc2)=N1 (stereo not shown) [Compound 12d, methyl (Z)—N′—((Z)-(3-(4-chlorophenyl)-4-phenyl-5,6-dihydropyridazin-1 (4H)-yl)(((4-(trifluoromethoxy)phenyl)sulfonyl)imino)methyl)carbamimidoselenoate] | 194 |  |
| CCC(N/C(=N/S(=O)(=O)c1ccc(C(F)(F)F)cc1)N1CCC(c2ccccc2)C(c2ccc(Cl)cc2)=N1)C(N)=O (single isomer, unassigned) [Compound 32a, (Z)-2-(3-(4-chlorophenyl)-4-phenyl-N′-((4-(trifluoromethyl)phenyl)sulfonyl)-1,4,5,6-tetrahydropyridazine-1-carboximidamido) butanamide] | 785 |  |
